Where two headings read alike, the source gives them in different places.
What was measured:
Format in all cases: binding
[1] = target: T1, HeLa cell extract proteins (Homo sapiens, UniProt P13727)
T1 construct: endogenous in cells; host or cells: HeLa cell extract
T1 sequence (P13727 106-222): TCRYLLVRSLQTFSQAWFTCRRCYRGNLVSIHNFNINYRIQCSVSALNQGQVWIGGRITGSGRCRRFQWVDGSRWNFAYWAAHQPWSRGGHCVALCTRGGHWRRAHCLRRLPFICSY

[2] = target: T2, HeLa cell extract proteins (Homo sapiens, UniProt P49736)
T2 construct: endogenous in cells; host or cells: HeLa cell extract
T2 sequence (P49736 whole entry): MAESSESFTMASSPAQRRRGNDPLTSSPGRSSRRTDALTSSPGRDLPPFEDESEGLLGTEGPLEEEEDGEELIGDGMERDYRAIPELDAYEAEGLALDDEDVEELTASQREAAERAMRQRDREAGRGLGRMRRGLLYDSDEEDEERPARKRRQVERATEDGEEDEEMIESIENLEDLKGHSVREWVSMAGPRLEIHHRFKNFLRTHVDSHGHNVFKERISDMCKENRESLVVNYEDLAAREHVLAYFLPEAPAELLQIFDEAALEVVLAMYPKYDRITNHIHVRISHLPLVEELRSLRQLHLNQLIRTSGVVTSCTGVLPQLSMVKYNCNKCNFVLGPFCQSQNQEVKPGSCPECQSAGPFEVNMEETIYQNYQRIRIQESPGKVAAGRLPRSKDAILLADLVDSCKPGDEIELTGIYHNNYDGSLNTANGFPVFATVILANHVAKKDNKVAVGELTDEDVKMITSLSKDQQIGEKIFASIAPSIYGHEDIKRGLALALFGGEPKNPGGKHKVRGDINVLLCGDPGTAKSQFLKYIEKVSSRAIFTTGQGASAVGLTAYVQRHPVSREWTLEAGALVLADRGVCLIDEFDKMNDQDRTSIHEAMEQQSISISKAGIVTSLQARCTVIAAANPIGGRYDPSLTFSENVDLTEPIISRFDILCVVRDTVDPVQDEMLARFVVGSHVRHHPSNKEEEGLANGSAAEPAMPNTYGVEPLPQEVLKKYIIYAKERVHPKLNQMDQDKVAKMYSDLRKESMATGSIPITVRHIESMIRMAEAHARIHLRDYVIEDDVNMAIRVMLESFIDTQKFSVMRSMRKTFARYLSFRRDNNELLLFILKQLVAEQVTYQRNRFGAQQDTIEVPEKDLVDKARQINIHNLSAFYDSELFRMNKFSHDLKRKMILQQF

[3] = target: T3, HeLa cell extract proteins (Homo sapiens, UniProt P52565)
T3 construct: endogenous in cells; host or cells: HeLa cell extract
T3 sequence (P52565 1-204): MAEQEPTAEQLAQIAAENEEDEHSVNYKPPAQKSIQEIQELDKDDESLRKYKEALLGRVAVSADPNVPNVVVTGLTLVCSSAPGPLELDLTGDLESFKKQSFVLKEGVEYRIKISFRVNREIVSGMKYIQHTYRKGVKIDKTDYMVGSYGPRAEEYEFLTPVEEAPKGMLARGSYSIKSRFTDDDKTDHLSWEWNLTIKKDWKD

[4] = target: T4, HeLa cell extract proteins (Homo sapiens, UniProt Q8NBJ5)
T4 construct: endogenous in cells; host or cells: HeLa cell extract

[5] = target: T5, HeLa cell extract proteins (Homo sapiens, UniProt Q9NNW5)
T5 construct: endogenous in cells; host or cells: HeLa cell extract
T5 sequence (Q9NNW5 1-1121): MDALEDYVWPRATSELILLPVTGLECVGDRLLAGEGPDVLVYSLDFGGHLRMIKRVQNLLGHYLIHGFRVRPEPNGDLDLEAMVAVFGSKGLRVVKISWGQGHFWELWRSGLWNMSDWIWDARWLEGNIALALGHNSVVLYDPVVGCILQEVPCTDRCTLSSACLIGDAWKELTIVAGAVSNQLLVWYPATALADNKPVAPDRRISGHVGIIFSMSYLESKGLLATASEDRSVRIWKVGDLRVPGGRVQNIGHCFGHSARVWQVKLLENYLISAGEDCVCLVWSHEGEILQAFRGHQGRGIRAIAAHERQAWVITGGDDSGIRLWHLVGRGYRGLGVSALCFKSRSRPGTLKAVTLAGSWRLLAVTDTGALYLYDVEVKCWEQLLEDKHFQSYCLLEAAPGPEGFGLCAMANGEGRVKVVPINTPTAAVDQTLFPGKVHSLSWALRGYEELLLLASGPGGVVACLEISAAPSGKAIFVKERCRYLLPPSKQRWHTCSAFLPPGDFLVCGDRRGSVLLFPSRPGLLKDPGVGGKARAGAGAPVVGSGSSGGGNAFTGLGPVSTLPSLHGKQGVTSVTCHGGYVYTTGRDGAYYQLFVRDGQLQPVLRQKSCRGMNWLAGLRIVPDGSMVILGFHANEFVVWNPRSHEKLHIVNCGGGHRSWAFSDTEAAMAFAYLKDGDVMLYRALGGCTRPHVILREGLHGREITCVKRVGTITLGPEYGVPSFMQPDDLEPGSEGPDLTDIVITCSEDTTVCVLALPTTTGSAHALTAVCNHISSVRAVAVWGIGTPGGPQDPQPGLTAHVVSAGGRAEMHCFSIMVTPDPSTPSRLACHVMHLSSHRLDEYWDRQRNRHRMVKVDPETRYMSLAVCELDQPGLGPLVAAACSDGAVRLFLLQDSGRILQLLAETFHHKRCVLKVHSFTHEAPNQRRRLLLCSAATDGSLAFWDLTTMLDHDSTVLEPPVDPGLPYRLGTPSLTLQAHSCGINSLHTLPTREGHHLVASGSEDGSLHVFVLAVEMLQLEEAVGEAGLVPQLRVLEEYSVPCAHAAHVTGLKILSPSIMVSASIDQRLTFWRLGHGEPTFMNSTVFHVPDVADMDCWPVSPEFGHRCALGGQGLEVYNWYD

[6] = target: T6, HeLa cell extract proteins (Homo sapiens, UniProt Q9UPN7)
T6 construct: endogenous in cells; host or cells: HeLa cell extract
T6 sequence (Q9UPN7 1-881): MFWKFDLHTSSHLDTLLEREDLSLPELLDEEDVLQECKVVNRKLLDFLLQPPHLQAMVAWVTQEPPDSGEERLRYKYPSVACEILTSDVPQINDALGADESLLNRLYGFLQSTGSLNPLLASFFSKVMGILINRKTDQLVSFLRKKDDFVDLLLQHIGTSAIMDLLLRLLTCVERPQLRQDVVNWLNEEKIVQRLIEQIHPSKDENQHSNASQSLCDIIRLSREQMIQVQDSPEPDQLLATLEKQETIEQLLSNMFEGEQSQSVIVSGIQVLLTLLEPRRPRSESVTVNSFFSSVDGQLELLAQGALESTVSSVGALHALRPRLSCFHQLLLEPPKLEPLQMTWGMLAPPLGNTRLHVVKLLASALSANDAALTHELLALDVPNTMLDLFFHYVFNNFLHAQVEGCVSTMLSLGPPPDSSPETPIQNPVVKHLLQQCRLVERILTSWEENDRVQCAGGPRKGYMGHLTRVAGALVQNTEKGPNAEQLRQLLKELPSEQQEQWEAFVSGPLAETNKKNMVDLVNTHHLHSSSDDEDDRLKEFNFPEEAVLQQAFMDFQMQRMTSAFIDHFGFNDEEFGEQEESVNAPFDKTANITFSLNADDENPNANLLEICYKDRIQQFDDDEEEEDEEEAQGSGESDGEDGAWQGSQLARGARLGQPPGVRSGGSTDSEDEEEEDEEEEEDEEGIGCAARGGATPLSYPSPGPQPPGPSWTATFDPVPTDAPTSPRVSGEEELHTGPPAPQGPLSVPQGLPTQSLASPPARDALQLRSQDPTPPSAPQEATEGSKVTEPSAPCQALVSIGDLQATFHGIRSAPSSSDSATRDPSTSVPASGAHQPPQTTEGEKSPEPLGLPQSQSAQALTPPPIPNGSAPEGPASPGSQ

[7] = target: T7, HeLa cell extract proteins (Homo sapiens, UniProt O00767); details: captured protein SCD; HeLa
T7 construct: endogenous in cells; host or cells: HeLa cell extract
T7 sequence (O00767 1-359): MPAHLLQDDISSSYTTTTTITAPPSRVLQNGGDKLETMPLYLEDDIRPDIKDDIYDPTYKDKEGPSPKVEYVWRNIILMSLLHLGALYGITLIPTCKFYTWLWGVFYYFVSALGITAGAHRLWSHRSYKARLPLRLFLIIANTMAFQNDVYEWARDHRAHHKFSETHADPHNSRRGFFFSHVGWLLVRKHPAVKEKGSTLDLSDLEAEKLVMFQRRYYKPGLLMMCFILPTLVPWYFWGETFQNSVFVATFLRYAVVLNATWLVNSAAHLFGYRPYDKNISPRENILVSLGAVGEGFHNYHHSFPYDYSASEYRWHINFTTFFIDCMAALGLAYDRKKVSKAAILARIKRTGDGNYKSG

[8] = target: T8, HeLa cell extract proteins (Homo sapiens, UniProt P60953); details: protein CDC42; HeLa
T8 construct: endogenous in cells; host or cells: HeLa cell extract
T8 sequence (P60953 whole entry): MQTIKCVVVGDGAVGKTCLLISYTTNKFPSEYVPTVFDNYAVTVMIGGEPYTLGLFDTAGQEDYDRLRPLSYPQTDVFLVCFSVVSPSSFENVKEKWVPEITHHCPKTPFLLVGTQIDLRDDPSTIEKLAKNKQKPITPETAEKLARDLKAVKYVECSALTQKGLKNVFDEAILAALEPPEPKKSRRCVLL

[9] = HeLa, protein SAPS1 (SAPS1 PROTEIN)

Row | SMILES | fold changes relative to vehicle control ([1]; HeLa, captured protein PRG2) | fold changes relative to vehicle control ([2]; HeLa, protein MCM2) | fold changes relative to vehicle control ([3]; HeLa, protein ARHGDIA) | fold changes relative to vehicle control ([4]; HeLa, captured protein GLT25D1) | fold changes relative to vehicle control ([5]; HeLa, protein WDR6) | fold changes relative to vehicle control [6, 9] | fold changes relative to vehicle control [7] | fold changes relative to vehicle control [8] | also measured
1 | Nc1nc2c(c(=O)[nH]1)N(C=O)C(CNc1ccc(C(=O)N[C@@H](CCC(=O)O)C(=O)O)cc1)CN2 (stereo partly drawn) [LEU, leucovorin] | 0.92 | 1.06 | 1.03 | 0.95 | 0.96 | 1.01 | – | – | –
2 | NCCCNc1ccc(C(=O)NC(CCC(=O)O)C(=O)O)cc1 (stereo not drawn) [compound 7] | 1.01 | 0.88 | 1.08 | 0.97 | 1.06 | 1.32 | – | – | –
3 | CCCCCCOc1cccc(Cc2cnc(N)nc2N)c1 [compound 2] | – | – | – | – | – | – | 0.91 | 1.45 | –
4 | CCCCCCOc1ccc(Cc2cnc(N)nc2N)cc1 [compound 1] | – | – | – | – | – | – | 0.92 | 1.11 | –
5 | Nc1nc2cccc(-c3ccccc3)c2n1Cc1ccc(Cl)c(Cl)c1 [compound 3] | – | – | – | – | – | – | 1 | 0.99 | –
6 | NCCOCCOCC(=O)Nc1nc2ncc(CNc3ccc(C(=O)NC(CCC(=O)O)C(=O)O)cc3)nc2c(=O)[nH]1 (stereo not drawn) [compound 6] | 0.77 | 1.18 | 1.18 | 0.93 | 1.19 | 1.29 | – | – | –
7 | Nc1nc2[nH]cc(CCc3ccc(C(=O)N[C@@H](CCC(=O)O)C(=O)O)cc3)c2c(=O)[nH]1 [PTX, pemetrexed] | – | – | – | – | – | – | – | – | fold changes relative to vehicle control [1]: 0.86; fold changes relative to vehicle control [2]: 1.05; fold changes relative to vehicle control [3]: 1.08; fold changes relative to vehicle control [4]: 0.83; fold changes relative to vehicle control [5]: 1.1; fold changes relative to vehicle control [6]: 1.49
